From patent US12138583B2, “Process for removal of acid gases from a fluid stream with a liquid absorbent comprising a piperazine ring” (BASF SE, priority 2019, dated 2024)
Like-named read-outs stand apart in the source and are kept apart here.

Assays:
Format in all cases: physicochemical
[1] = Acid gas loading capacity: CO2 loading and stripping experiment; conditions: for CO2 loading after loading / CO2 loading after stripping / Cyclic CO2 capacity: 30 wt.-% amine in water; for CO2 loading after loading: 40° C., ambient pressure, 8 L (STP)/h CO2, about 4 h; for CO2 loading after stripping: stripping at 80° C. with N2 8 L (STP)/h, 60 min; for Cyclic CO2 capacity: difference of loading after loading and after stripping; for Acid gas loading capacities (in words): CO2 and H2S, absorbents 30 wt.-% in water, compared with TBAEE and MDEA
Procedure: (§1) A loading experiment and subsequently a stripping experiment were conducted. A glass condenser, which was operated at 5° C., was attached to a glass cylinder with a thermostated jacket. Condensate obtained in the course of the experiment was returned to the glass cylinder so as to prevent distortion of the test results by partial evaporation of the absorbent.
(§2) The glass cylinder was initially charged with about 100 mL of unladen absorbent (30% by weight of amine in water). To determine the absorption capacity, at ambient pressure and 40° C., 8 L (STP)/h of CO2 or H2S were passed through the absorption liquid via a frit over a period of about 4 h. Subsequently, the loading of CO2 or H2S was determined as follows:
(§3) The determination of H2S was effected by titration with silver nitrate solution. For this purpose, the sample to be analyzed was weighed into an aqueous solution together with about 2% by weight of sodium acetate and about 3% by weight of ammonia. Subsequently, the H2S content was determined by a potentiometric turning point titration by means of silver nitrate. At the turning point, H2S is fully bound as Ag2S. The CO2 content was determined as total inorganic carbon (TOC-V Series Shimadzu).
(§4) The laden solution was stripped by heating an identical apparatus setup to 80° C., introducing the laden absorbent and stripping it by means of an N2 stream (8 L (STP)/h). After 60 min, a sample was taken and the CO2 or H2S loading of the absorbent was determined as described above.
(§5) The difference in the loading at the end of the loading experiment and the loading at the end of the stripping experiment gives the respective cyclic capacity.

[2] = Thermal stability of aqueous amine solutions with and without acid gas loading; conditions: 150° C., 125 h; for Ratio of Degradation Without Acid Gas Loading: closed cylinder, amine concentration by GC before and after; for Ratio of Degradation Without Acid Gas Loading / Ratio of Degradation With Acid Gas Loading: in water: MDEA 40, TBAP-MPIP 30, TBAE-MPIP 25, DEAE-EPIP 30 wt.-%; for Ratio of Degradation With Acid Gas Loading: 20 m^3 (STP)/tsolvent CO2 and 20 m^3 (STP)/tsolvent H2S
Procedure: The thermal stability of TBAP-MPIP (30 wt.-% in water) and TBAE-MPIP (25 wt.-% in water) was compared to both MDEA (40 wt.-% MDEA in water) and DEAE-EPIP (30 wt.-% DEAE-EPIP in water) with and without acid gas loading.
A cylinder (10 mL) was initially charged with the respective solution (8 mL) and the cylinder was closed. […] In the experiments conducted under acid gas loading, the acid gas loading of the solutions was 20 m^3 (STP)/tsolvent of CO2 and 20 m^3 (STP)/tsolvent of H2S. The decomposition level of the amines was calculated from the amine concentration measured by gas chromatography before and after the experiment.

[3] = Acid gas loading capacity: H2S loading and stripping experiment; conditions: for H2S loading after loading / H2S loading after stripping / Cyclic H2S capacity: 30 wt.-% amine in water; for H2S loading after loading: 40° C., ambient pressure, 8 L (STP)/h H2S, about 4 h; for H2S loading after stripping: stripping at 80° C. with N2 8 L (STP)/h, 60 min; for Cyclic H2S capacity: difference of loading after loading and after stripping
Procedure: as §1, §2, §3, §4, §5

[4] = pKA value by titration with hydrochloric acid; conditions: for pKa: aqueous solution, aqueous solution 0.005 mol amine per liter, HCl 0.1 mol/L; for pKa / Second pKA value (in words): 20° C.; for First pKA value (in words): at relatively low temperatures (20° C.)
[5] = Relative volatility: N2 passed through the absorbent, condensate analysed by GC and Karl Fischer titration; conditions: for Amine (in condensate) / Water (in condensate) / Condensate: 30 wt.-% aqueous solution, 50° C., 8 h; for Amine (in condensate) / Water (in condensate): 30 L (STP)/h N2; for Amine (in condensate): GC; for Water (in condensate): Karl Fischer titration; for Condensate: 200 mL, 30 L (STP)/h N2, condenser 5° C.; for Volatility (in words): 30 wt.-% aqueous solutions
Procedure: The volatility of amines TBAP-MPIP and TBAE-MPIP in 30 wt.-% aqueous solutions was compared to that of amines M3ETB, MDEA and TBAEPY in 30% wt.-% aqueous solutions.
A glass condenser, which was operated at 5° C., was attached to a glass cylinder with a thermostated jacket. The glass cylinder was thermostated to 50° C., and 200 mL of the absorbent were introduced for each test. Over an experimental duration of 8 h, 30 L (STP)/h of N2 were passed through the absorbent at ambient pressure. For each amine, the test was conducted three times. The condensate was analyzed by means of GC and Karl Fischer titration.

Compound | CO2 loading after loading [1] [mol CO2/molamine] | CO2 loading after stripping [1] [mol CO2/molamine] | Cyclic CO2 capacity [1] [mol CO2/molamine] | Ratio of Degradation Without Acid Gas Loading [2] | Ratio of Degradation With Acid Gas Loading [2] | H2S loading after loading [3] [mol H2S/molamine] | H2S loading after stripping [3] [mol H2S/molamine] | Cyclic H2S capacity [3] [mol H2S/molamine] | Cyclic H2S capacity (in words) ([3]; 30 wt.-% in water, comparison with TBAP-MPIP and TBAE-MPIP) | pKa ([4]; read-out: pKA 1) | pKa ([4]; read-out: pKA 2) | pKa ([4]; read-out: pKA 3) | Amine (in condensate) [5] [wt %] | Water (in condensate) [5] [wt %] | Condensate [5] [mL] | Acid gas loading capacities (in words) [1] | Stability in aqueous solutions (in words) [2] | Volatility (in words) [5] | Second pKA value (in words) [4] | First pKA value (in words) [4]
CCN(CC)CCN1CCN(CC)CC1 [DEAE-EPIP, 2-(4-ethylpiperazin-1-yl)ethyl-diethylamine, reference compound] | 1.48 | 0.13 | 1.35 | 1.00 | 0.77 | 0.98 | 0.31 | 0.67 | significantly lower than the capacity of both TBAP-MPIP and TBAE-MPIP | 10.3 | 8.61 | 6.2 | – | – | – | – | – | – | – | –
COCCOCCOCCNC(C)(C)C [M3ETB, (2-(2-(2-tert-butylaminoethoxy)ethoxy)ethyl)methyl ether, reference compound] | – | – | – | – | – | – | – | – | – | – | – | – | 0.7 | 99.2 | 30.1 | – | – | – | – | –
CN1CCN(CCNC(C)(C)C)CC1 [TBAE-MPIP, 2-(4-methylpiperazin-1-yl)ethyl-tert-butylamine] | 1.46 | 0.22 | 1.24 | 1.00 | 0.88 | 1.62 | 0.35 | 1.27 | – | 10 | 8.82 | 5.47 | 0.7 | 99.3 | 29.28 | significantly higher acid gas loading capacities than absorbents based on TBAEE and MDEA | comparable to MDEA, and higher than DEAE-EPIP | suitably low volatility | close to the pKa value of MDEA | high first pKA values
CC(C)(C)NCCOCCO [TBAEE, 2-(2-tert-butylaminoethoxy)ethanol, reference compound] | 0.97 | 0.24 | 0.73 | – | – | – | – | – | – | – | – | – | – | – | – | – | – | – | – | –
CC(C)(C)NCCN1CCCC1=O [TBAEPY, 1-[2-(tert-butylamino)ethyl]pyrrolidin-2-one, reference compound] | – | – | – | – | – | – | – | – | – | – | – | – | 0.2 | 99.5 | 28.8 | – | – | – | – | –
CN1CCN(CCCNC(C)(C)C)CC1 [TBAP-MPIP, 3-(4-methylpiperazin-1-yl)propyl-tert-butylamine] | 1.41 | 0.70 | 0.71 | 0.99 | 0.91 | 1.48 | 0.33 | 1.15 | – | 10.7 | 7.68 | 5.8 | 0.3 | 99.7 | 30.3 | significantly higher acid gas loading capacities than absorbents based on TBAEE and MDEA | comparable to MDEA, and higher than DEAE-EPIP | suitably low volatility | close to the pKa value of MDEA | high first pKA values
